Laboratory results from patent US6380198B1 (Laboratoire Medidom S.A., priority 1997, dated 2002).
pIC50: −log10 of the molar value. Several values for one entry are separate records, joined by “and”; a condition that tells them apart may be missing. Equal values may be shown once.

Assays:
intraocular pressure = settings: Payene et al. 1990; cited from earlier work
[1] = test system: intraocular pressure of rabbits with ocular hypertension; assay: Intraocular pressure in rabbits with ocular hypertension induced by α-chymotrypsin; assay type: in vivo, rabbit (Vienna Blue, pigmented); settings: for Intraocular pressure (mmHg) at the time (min): 30, average ± S.D. / Intraocular pressure (mmHg) at the time (min): 60, average ± S.D. / Intraocular pressure (mmHg) at the time (min): 90, average ± S.D. / Intraocular pressure (mmHg) at the time (min): 120, average ± S.D. / Intraocular pressure (mmHg) at the time (min): 180, average ± S.D. / Intraocular pressure (mmHg) at the time (min): 240, average ± S.D. / Intraocular pressure (mmHg) at the time (min): 0, average ± S.D. / Intraocular pressure (mmHg) at the time (min): 30 / Intraocular pressure (mmHg) at the time (min): 60 / Intraocular pressure (mmHg) at the time (min): 90 / Intraocular pressure (mmHg) at the time (min): 120 / Intraocular pressure (mmHg) at the time (min): 180 / Intraocular pressure (mmHg) at the time (min): 240 / Intraocular pressure (mmHg) at the time (min): 0: Table 3, hypertensive rabbits, 50 μl eye-drops: 0.050% flunarizine, 0.056% verapamil, 0.051% diltiazem, 0.043% nifedipine; for Intraocular pressure (mmHg) at the time (min): 30, average ± S.D. / Intraocular pressure (mmHg) at the time (min): 60, average ± S.D. / Intraocular pressure (mmHg) at the time (min): 90, average ± S.D. / Intraocular pressure (mmHg) at the time (min): 120, average ± S.D. / Intraocular pressure (mmHg) at the time (min): 180, average ± S.D. / Intraocular pressure (mmHg) at the time (min): 240, average ± S.D. / Intraocular pressure (mmHg) at the time (min): 0, average ± S.D.: average ± S.D. of 4 rabbits; for Intraocular pressure (mmHg) at the time (min): 30, average ± S.D. / Intraocular pressure (mmHg) at the time (min): 30: 30 min after instillation; for Intraocular pressure (mmHg) at the time (min): 60, average ± S.D. / Intraocular pressure (mmHg) at the time (min): 60: 60 min after instillation; for Intraocular pressure (mmHg) at the time (min): 90, average ± S.D. / Intraocular pressure (mmHg) at the time (min): 90: 90 min after instillation; for Intraocular pressure (mmHg) at the time (min): 120, average ± S.D. / Intraocular pressure (mmHg) at the time (min): 120: 120 min after instillation; for Intraocular pressure (mmHg) at the time (min): 180, average ± S.D. / Intraocular pressure (mmHg) at the time (min): 180: 180 min after instillation; for Intraocular pressure (mmHg) at the time (min): 240, average ± S.D. / Intraocular pressure (mmHg) at the time (min): 240: 240 min after instillation; for Intraocular pressure (mmHg) at the time (min): 0, average ± S.D. / Intraocular pressure (mmHg) at the time (min): 0: time 0 = 15 min before instillation (baseline); for Intraocular pressure (mmHg) at the time (min): 30 / Intraocular pressure (mmHg) at the time (min): 60 / Intraocular pressure (mmHg) at the time (min): 90 / Intraocular pressure (mmHg) at the time (min): 120 / Intraocular pressure (mmHg) at the time (min): 180 / Intraocular pressure (mmHg) at the time (min): 240 / Intraocular pressure (mmHg) at the time (min): 0: individual rabbit, right eye
Method: Rabbits of the same type as those described in the previous section were used for the following tests.
In the rabbit, the injection of this enzyme in the posterior chamber causes, after one month from the administration, an effect of ocular hypertension.
At the end of the quarantine period the rabbits were anaesthetised by intramuscular administration of ketamine hydrochloride and xylazine hydrochloride (RBI). The right eye was gently pushed outwardly after instilling 25 μl of Novesine® eye-drops, containing oxybuprocaine as an anaesthetic; then, a sterile solution of σ-chymotrypsin (SIGMA, Milan; 150 units in 100 μl of physiologic sterile solution) was injected in the posterior chamber of the right eye by means of a 30G sterile needle. After the administration of the enzyme, the eye was thoroughly washed with physiologic sterile solution in order to remove any traces of α-chymotrypsin which could damage the ocular tissues. Then, 2 drops of a commercial ophthalmic antibiotic solution (Colbiocin®, SIFI S.p.A., containing chloramphenicol, rolitetracycline, colistin methanesulphonate) were instilled. The treatment was carried out 3 times a day (at 8.00 a.m., 12.00 a.m. and 6.00 p.m.) for one week after the administration of α-chymotrypsin. The rabbits were employed in the tests after one month from the induction of ocular hypertension by means of the enzyme.
The rabbits, divided also in this case in groups of 4 animals, were treated by instillation of 50 μl of the product under test in the right conjunctival fornix.
The intraocular pressure in the treated eye was measured, according to the same procedure as in the previous tests, 15 minutes before the instillation of the eye-drops and 30, 60, 90, 120, 180 and 240 minutes after. The values obtained were statistically analysed according to the criteria mentioned in the foregoing.
The experimental conditions were exactly the same as before.

[2] = test system: intraocular pressure of rabbits showing normal baseline intraocular pressure; assay: Intraocular pressure in rabbits with normal intraocular pressure after topical instillation; assay type: in vivo, rabbit (Vienna Blue, pigmented); settings: for Intraocular pressure (mmHg) at the time (min): 30, average ± S.D. / Intraocular pressure (mmHg) at the time (min): 60, average ± S.D. / Intraocular pressure (mmHg) at the time (min): 90, average ± S.D. / Intraocular pressure (mmHg) at the time (min): 120, average ± S.D. / Intraocular pressure (mmHg) at the time (min): 180, average ± S.D. / Intraocular pressure (mmHg) at the time (min): 240, average ± S.D. / Intraocular pressure (mmHg) at the time (min): 0, average ± S.D. / Intraocular pressure (mmHg) at the time (min): 30 / Intraocular pressure (mmHg) at the time (min): 60 / Intraocular pressure (mmHg) at the time (min): 90 / Intraocular pressure (mmHg) at the time (min): 120 / Intraocular pressure (mmHg) at the time (min): 180 / Intraocular pressure (mmHg) at the time (min): 240 / Intraocular pressure (mmHg) at the time (min): 0: Table 1, 50 μl eye-drops: 0.050% flunarizine, 0.056% verapamil, 0.051% diltiazem, 0.043% nifedipine; for Intraocular pressure (mmHg) at the time (min): 30, average ± S.D. / Intraocular pressure (mmHg) at the time (min): 60, average ± S.D. / Intraocular pressure (mmHg) at the time (min): 90, average ± S.D. / Intraocular pressure (mmHg) at the time (min): 120, average ± S.D. / Intraocular pressure (mmHg) at the time (min): 180, average ± S.D. / Intraocular pressure (mmHg) at the time (min): 240, average ± S.D. / Intraocular pressure (mmHg) at the time (min): 0, average ± S.D.: average ± S.D. of 4 rabbits; for Intraocular pressure (mmHg) at the time (min): 30, average ± S.D. / Intraocular pressure (mmHg) at the time (min): 30: 30 min after instillation; for Intraocular pressure (mmHg) at the time (min): 60, average ± S.D. / Intraocular pressure (mmHg) at the time (min): 60: 60 min after instillation; for Intraocular pressure (mmHg) at the time (min): 90, average ± S.D. / Intraocular pressure (mmHg) at the time (min): 90: 90 min after instillation; for Intraocular pressure (mmHg) at the time (min): 120, average ± S.D. / Intraocular pressure (mmHg) at the time (min): 120: 120 min after instillation; for Intraocular pressure (mmHg) at the time (min): 180, average ± S.D. / Intraocular pressure (mmHg) at the time (min): 180: 180 min after instillation; for Intraocular pressure (mmHg) at the time (min): 240, average ± S.D. / Intraocular pressure (mmHg) at the time (min): 240: 240 min after instillation; for Intraocular pressure (mmHg) at the time (min): 0, average ± S.D. / Intraocular pressure (mmHg) at the time (min): 0: time 0 = 15 min before instillation (baseline); for Intraocular pressure (mmHg) at the time (min): 30 / Intraocular pressure (mmHg) at the time (min): 60 / Intraocular pressure (mmHg) at the time (min): 90 / Intraocular pressure (mmHg) at the time (min): 120 / Intraocular pressure (mmHg) at the time (min): 180 / Intraocular pressure (mmHg) at the time (min): 240 / Intraocular pressure (mmHg) at the time (min): 0: individual rabbit, right eye
Method: The effects of the agent of the invention on the intraocular pressure of rabbits showing normal baseline intraocular pressure were evaluated in comparison with the action of a placebo, and with that of various other calcium channel blocking agents. Female pigmented rabbits of the Vienna Blue strain were used (supplied by Charles River Italiana, of Calco (CO)). The age of the animals at the time of starting the experimentation was 9 weeks, and their weight was 2.0-2.5 kg.
The choice of a species with pigmented iris is due to the fact that the latter represents a reliable model for the evaluation of possible modifications of the intraocular pressure caused by the products under test. The strain chosen is genetically defined, so as to limit to a minimum the variability of the biological characteristics between one animal and the other.
The animals were kept in rooms maintained under constant and controlled conditions of temperature and humidity, illuminated for 12 hours a day with artificial light and with continuous renovation of the air. The feed consisted of a standard diet having a constant and known composition, and both feed and water were available ad libitum during the whole period of the test. The rabbits were stabled for 21 days before starting the test, so as to allow a sufficient acclimatation and to suitably evaluate the health conditions of the rabbits. Each experimental group consisted of 4 animals, which were allotted to the treatment groups in a randomised way.
Each different group of animals received, by instillation in the right conjunctival fornix, 50 μl of the following products:
The weight concentrations of the various agents under test are chosen so as to correspond to the same molar concentration.
The pressure in the treated eye was measured by flattening tonometer (TonopenXL®, Mentor), 15 minutes before the instillation of the eyerops (time 0) and then 30, 60, 90, 120, 180 and 240 minutes after. As a local anaesthetic, 5 minutes before carrying out each measurement 25 μl of a commercial ophthalmic solution containing 0.4% oxybuprocaine hydrochloride (Novesine®, Sandoz) was instilled. To carry out the measurement the rabbits were placed in a suitably designed cage, that prevents any sudden movement of the animal under test.
For each animal and at each of the times listed above the average of three subsequent measurements was calculated and recorded, each one said measurements being made after 1 minute from the previous one. The intraocular pressure values at the various times were compared with the values obtained before the treatment, by means of the Student's “t” test. The comparisons between different groups were made by processing the data by the variance analysis (ANOVA) and, where possible, by the Student's “t” test for the comparison of two different experimental groups. Values of p<0.05 were considered to be statistically significant.

σ-1 receptors = biological target: T1, σ-1 receptors (Oryctolagus cuniculus, UniProt G1SD54); assay: Inhibition of 3H(+)-N-allyl-nor-methazocine binding to irido-ciliary body membranes; design: species or system rabbit (New Zealand albino); settings: rabbit irido-ciliary body P2 membranes, 300 μg protein, 37° C., 150 minutes, duplicate
T1 construct: cell membranes obtained from the irido-ciliary body complex; from tissue; host or cells: rabbit irido-ciliary body, P2 membrane fraction
Method: The receptor binding technique was carried out on cell membranes obtained from the irido-ciliary body complex explanted, after sacrifice, from male albino rabbits of the New Zealand strain (Charles River Italiana, of Calco (CO)). The tissue was homogenised in buffer and the P2, fraction, rich in cell membrane proteins, was isolated. […] The La total protein concentration was determined with the Lowry method.
The non specific binding was evaluated in presence of haloperidol.
All tests were carried out in duplicate. The reaction was maintained at 37° C. for 150 minutes, followed by filtration on WhatmannGF/B filters. The radioactivity left on the filters was measured by liquid scintillation spectrometry.

[3] = test system: cornea (corneal thickness); settings: rabbit, in vivo
Method: The evaluation of the thickness of the cornea was carried out ecographically by means of a UBM System 840 (Humphrey Instruments, San Leandro, Calif., USA). […] The software incorporated allows to modify the focalisation depth of the ultrasound beam, and to capture the image while varying its amplification.
The animals employed in this test were of the same type as those described in the foregoing, and were treated in the same way. The test was carried out, after having anaesthetised the animal (with ketamine hydrochloride and xylazine hydrochloride), by placing into contact with the eyeball tiny cups filled in with a coupling means (ultrasound gel).

[4] = 50 μl eye-drops, 0.050% flunarizine, equimolar comparators, 0.5% timolol

T1 sequence (G1SD54 1-223): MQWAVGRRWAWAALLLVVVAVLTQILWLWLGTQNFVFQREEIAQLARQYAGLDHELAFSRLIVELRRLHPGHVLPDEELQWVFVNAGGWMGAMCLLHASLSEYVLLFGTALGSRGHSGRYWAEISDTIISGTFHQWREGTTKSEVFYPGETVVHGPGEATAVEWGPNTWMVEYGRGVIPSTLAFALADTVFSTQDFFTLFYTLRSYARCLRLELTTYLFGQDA

Row | Compound | Intraocular pressure (mmHg) at the time (min): 30, average ± S.D. [1] [mmHg] | Intraocular pressure (mmHg) at the time (min): 60, average ± S.D. [1] [mmHg] | Intraocular pressure (mmHg) at the time (min): 90, average ± S.D. [1] [mmHg] | Intraocular pressure (mmHg) at the time (min): 120, average ± S.D. [1] [mmHg] | Intraocular pressure (mmHg) at the time (min): 180, average ± S.D. [1] [mmHg] | Intraocular pressure (mmHg) at the time (min): 240, average ± S.D. [1] [mmHg] | Intraocular pressure (mmHg) at the time (min): 0, average ± S.D. [1] [mmHg] | Intraocular pressure (mmHg) at the time (min): 30 [1] | Intraocular pressure (mmHg) at the time (min): 60 [1] | Intraocular pressure (mmHg) at the time (min): 90 [1] | Intraocular pressure (mmHg) at the time (min): 120 [1] | Intraocular pressure (mmHg) at the time (min): 180 [1] | Intraocular pressure (mmHg) at the time (min): 240 [1] | Intraocular pressure (mmHg) at the time (min): 0 [1] | Intraocular pressure (mmHg) at the time (min): 30, average ± S.D. [2] [mmHg] | Intraocular pressure (mmHg) at the time (min): 60, average ± S.D. [2] [mmHg] | Intraocular pressure (mmHg) at the time (min): 90, average ± S.D. [2] [mmHg] | Intraocular pressure (mmHg) at the time (min): 120, average ± S.D. [2] [mmHg] | Intraocular pressure (mmHg) at the time (min): 180, average ± S.D. [2] [mmHg] | Intraocular pressure (mmHg) at the time (min): 240, average ± S.D. [2] [mmHg] | other results
1 | COc1ccc([C@@H]2Sc3ccccc3N(CCN(C)C)C(=O)[C@@H]2OC(C)=O)cc1 [diltiazem] | 49.5 ± 5.80 | 47.5 ± 5.80 | 48.2 ± 5.90 | 49.5 ± 5.68 | 49.0 ± 5.71 | 48.7 ± 6.13 | 49.0 ± 5.71 | 55 mmHg and 53 mmHg and 48 mmHg and 42 mmHg | 53 mmHg and 51 mmHg and 46 mmHg and 40 mmHg | 54 mmHg and 52 mmHg and 46 mmHg and 41 mmHg | 56 mmHg and 52 mmHg and 47 mmHg and 43 mmHg | 56 mmHg and 51 mmHg and 48 mmHg and 43 mmHg | 55 mmHg and 52 mmHg and 47 mmHg and 41 mmHg | 55 mmHg and 52 mmHg and 47 mmHg and 42 mmHg | 15.2 ± 1.2 | 14.7 ± 0.9 | 14.7 ± 0.9 | 15 ± 0.5 | 16.2 ± 0.95 | 16 ± 0.6 | Intraocular pressure after topical administration to rabbits (intraocular pressure): did not detect any significant effect; Effect on intraocular pressure in rabbits with ocular hypertension, in words [1, 4]: do not show any significant reduction; Effect on intraocular pressure in rabbits with normal pressure, in words [2, 4]: neither the verapamil formulation nor the diltiazem formulation, both using the same vehicle as MEG 01, did produce any intraocular pressure decrease; Intraocular pressure (mmHg) at the time (min): 0, average ± S.D. [2]: 16.7 ± 1.5 mmHg; Intraocular pressure (mmHg) at the time (min): 30 [2]: 14 mmHg and 15 mmHg (2×) and 17 mmHg; Intraocular pressure (mmHg) at the time (min): 60 [2]: 14 mmHg (2×) and 17 mmHg and 13 mmHg; Intraocular pressure (mmHg) at the time (min): 90 [2]: 14 mmHg (2×) and 16 mmHg and 15 mmHg; Intraocular pressure (mmHg) at the time (min): 120 [2]: 15 mmHg (2×) and 16 mmHg (2×); Intraocular pressure (mmHg) at the time (min): 180 [2]: 15 mmHg and 16 mmHg and 17 mmHg (2×); Intraocular pressure (mmHg) at the time (min): 240 [2]: 16 mmHg (2×) and 17 mmHg (2×); Intraocular pressure (mmHg) at the time (min): 0 [2]: 15 mmHg and 16 mmHg and 18 mmHg (2×); pIC50 (σ-1 receptors): < 5.00
2 | COC(=O)C1=C(C)NC(C)=C(C(=O)OC)C1c1ccccc1[N+](=O)[O-] [nifedipine] | 47.7 ± 7.18 | 46.75 ± 6.13 | 46.5 ± 6.19 | 47.0 ± 5.47 | 48.00 ± 4.98 | 48.00 ± 4.96 | 48.0 ± 5.47 | 55 mmHg and 52 mmHg and 45 mmHg and 39 mmHg | 53 mmHg and 50 mmHg and 45 mmHg and 39 mmHg | 52 mmHg and 50 mmHg and 46 mmHg and 38 mmHg | 53 mmHg and 49 mmHg and 46 mmHg and 40 mmHg | 54 mmHg and 48 mmHg and 45 mmHg and 41 mmHg | 54 mmHg and 49 mmHg and 47 mmHg and 42 mmHg | 54 mmHg and 50 mmHg and 47 mmHg and 41 mmHg | 14.7 ± 1.2 | 13.7 ± 0.9 | 15.5 ± 0.6 | 16.0 ± 1.5 | 16.5 ± 1.7 | 16 ± 0 | Corneal swelling / alteration of corneal thickness, in words [3]: No significant effect; Intraocular pressure (mmHg) at the time (min): 0, average ± S.D. [2]: 15.7 ± 1.7 mmHg; Intraocular pressure (mmHg) at the time (min): 30 [2]: 15 mmHg (2×) and 13 mmHg and 16 mmHg; Intraocular pressure (mmHg) at the time (min): 60 [2]: 14 mmHg and 13 mmHg (2×) and 15 mmHg; Intraocular pressure (mmHg) at the time (min): 90 [2]: 16 mmHg (2×) and 15 mmHg (2×); Intraocular pressure (mmHg) at the time (min): 120 [2]: 16 mmHg; Intraocular pressure (mmHg) at the time (min): 180 [2]: 17 mmHg (2×) and 15 mmHg (2×); Intraocular pressure (mmHg) at the time (min): 240 [2]: 17 mmHg (2×) and 14 mmHg and 18 mmHg; Intraocular pressure (mmHg) at the time (min): 0 [2]: 16 mmHg and 15 mmHg and 14 mmHg and 18 mmHg; pIC50 (σ-1 receptors): < 5.00
